Data: patent US20020051811A1, “Method and composition for masking mineral taste” (priority 1999, published 2002)
Marks after values point to notes of the source that are not given here. Residues, ends and D or L forms follow the SMILES beside them.

Tests used:
Format in all cases: in vivo
[1] = AK added at low levels to solutions containing KCl, perceived bitter aftertaste; conditions: 1 to 5 mg/100 ml
Procedure: The level of AK used was 1 to 5 mg/100 ml, which is equivalent in sweetness contribution to between 0.2% and 1% sucrose. This characteristic is specific to AK, and is not noted when […].

[2] = Expert panel evaluation of taste modifiers on taste of KCl solutions; conditions: 1.26% KCl, score 0-8
Procedure: Additional testing was conducted, comparing the absence of taste modifiers with the three taste modifiers of the invention, both separately, and in combinations (AK and glycyrrhizin) (AK and tannic acid) (glycyrrhizin and tannic acid). […] In this study, again, 1.26% KCl was prepared, and used as the test medium for all experiments. The aqueous solution was evaluation by an expert panel for each of the taste attributes. The panel consisted of eight individuals who were screened for their taste acuity and trained in the use of the score sheet. The score sheet employed by the panel appears as Table III hereto.

[3] = Effect of glycyrrhizin on potassium-containing beverages (taste scores); conditions: for effect on aftertaste of KCl: 20-40 mg/100 cc, beverage containing 2.52% KCl by weight; for Bitter / Metallic / Salt: 2.52% KCl beverage, scale 0 to 8
From the text: The effect of glycyrrhizin on potassium-containing beverages was studied.

[4] = Effect of tannic acid on potassium-containing beverages (taste scores); conditions: for Aftertaste / Bitter / Salt: 1.26% KCl beverage, scale 0 to 8
From the text: The effect of tannic acid on potassium-containing beverages was studied.

With `CC1=CC(=O)NS(=O)(=O)O1` [Acesulfame-K, acesulfame potassium] the “effect on perceived bitter aftertaste of KCl solutions” value (“effect on perceived bitter aftertaste” for short) [1] was “reduced the perceived bitter aftertaste”, the Bitter ([2]; modifier 2.5 mg/100 cc) was 3.0* and the Other ([2]; modifier 2.5 mg/100 cc) was 2.8*. It also gave a Salt ([2]; modifier 2.5 mg/100 cc) of 2.8, a Sour ([2]; modifier 2.5 mg/100 cc) of 0.0 and a Sweet ([2]; modifier 2.5 mg/100 cc) of 0.0. The Bitter ([2]; modifier 5.0 mg/100 cc) was 2.3*, the Other ([2]; modifier 5.0 mg/100 cc) was 2.2* and the Salt ([2]; modifier 5.0 mg/100 cc) was 2.3. For the same molecule, the Sour ([2]; modifier 5.0 mg/100 cc) was 0.0, the Sweet ([2]; modifier 5.0 mg/100 cc) was 0.0 and the Bitter ([2]; modifier 7.5 mg/100 cc) was 1.8*. For the same molecule, the Other ([2]; modifier 7.5 mg/100 cc) was 0.5*, the Salt ([2]; modifier 7.5 mg/100 cc) was 1.5* and the Sour ([2]; modifier 7.5 mg/100 cc) was 0.0. For the same molecule, the Sweet ([2]; modifier 7.5 mg/100 cc) was 1.3.

For `COC(=O)[C@H](Cc1ccccc1)NC(=O)[C@@H](N)CC(=O)O` [aspartame] (HELM PEPTIDE1{D.F.[CO[*:1]]}$$$$V2.0), the “effect on perceived bitter aftertaste” value [1] was “not noted”.

For `CC1(C)[C@@H](O[C@H]2O[C@H](C(=O)O)[C@@H](O)[C@H](O)[C@H]2O[C@@H]2O[C@H](C(=O)O)[C@@H](O)[C@H](O)[C@H]2O)CC[C@]2(C)[C@H]3C(=O)C=C4[C@@H]5C[C@@](C)(C(=O)O)CC[C@]5(C)CC[C@@]4(C)[C@]3(C)CC[C@@H]12` [glycyrrhizin], the “effect on aftertaste of KCl” value [3] was “effective in reducing the aftertaste of KCl”, the “effect on aftertaste of KCl” value ([3]; listed as Glycyrrhizin) was “effective in reducing the bitter and metallic aftertaste of KCl” and the Bitter ([3]; +20 mg/100 cc glycyrrhizin) was 2.5. For the same molecule, the Metallic ([3]; +20 mg/100 cc glycyrrhizin) was 2.0, the Salt ([3]; +20 mg/100 cc glycyrrhizin) was 2.5 and the Bitter ([3]; +40 mg/100 cc glycyrrhizin) was 2.5. For the same molecule, the Metallic ([3]; +40 mg/100 cc glycyrrhizin) was 2.0, the Salt ([3]; +40 mg/100 cc glycyrrhizin) was 2.0 and the Bitter ([2]; modifier 5.0 mg/100 cc) was 2.0*. The Other ([2]; modifier 5.0 mg/100 cc) was 1.0*, the Salt ([2]; modifier 5.0 mg/100 cc) was 3.5 and the Sour ([2]; modifier 5.0 mg/100 cc) was 0.0. The Sweet ([2]; modifier 5.0 mg/100 cc) was 0.0, the Bitter ([2]; modifier 10.0 mg/100 cc) was 3.3* and the Other ([2]; modifier 10.0 mg/100 cc) was 2.0*. It also gave a Salt ([2]; modifier 10.0 mg/100 cc) of 2.3, a Sour ([2]; modifier 10.0 mg/100 cc) of 0.0 and a Sweet ([2]; modifier 10.0 mg/100 cc) of 0.0. For the same molecule, the Bitter ([2]; modifier 20.0 mg/100 cc) was 2.3*, the Other ([2]; modifier 20.0 mg/100 cc) was 2.0* and the Salt ([2]; modifier 20.0 mg/100 cc) was 2.0. The Sour ([2]; modifier 20.0 mg/100 cc) was 0.0 and the Sweet ([2]; modifier 20.0 mg/100 cc) was 0.5.

In the case of `O=C1NS(=O)(=O)c2ccccc21` [saccharin], the “effect on perceived bitter aftertaste” value [1] is reported as “not noted”.

With `O=C(OC[C@H]1O[C@@H](OC(=O)c2cc(O)c(O)c(OC(=O)c3cc(O)c(O)c(O)c3)c2)[C@H](OC(=O)c2cc(O)c(O)c(OC(=O)c3cc(O)c(O)c(O)c3)c2)[C@@H](OC(=O)c2cc(O)c(O)c(OC(=O)c3cc(O)c(O)c(O)c3)c2)[C@@H]1OC(=O)c1cc(O)c(O)c(OC(=O)c2cc(O)c(O)c(O)c2)c1)c1cc(O)c(O)c(OC(=O)c2cc(O)c(O)c(O)c2)c1` [tannic acid] the Aftertaste ([4]; +5 mg/100 cc tannic acid) was 1.0, the Bitter ([4]; +5 mg/100 cc tannic acid) was 1.0 and the Salt ([4]; +5 mg/100 cc tannic acid) was 1.5. It also gave an Aftertaste ([4]; +10 mg/100 cc tannic acid) of 1.0, a Bitter ([4]; +10 mg/100 cc tannic acid) of 1.0 and a Salt ([4]; +10 mg/100 cc tannic acid) of 1.0. It also gave an Aftertaste ([4]; +50 mg/100 cc tannic acid) of 1.0, a Bitter ([4]; +50 mg/100 cc tannic acid) of 2.5 and a Salt ([4]; +50 mg/100 cc tannic acid) of 1.5. The “effect on bitter aftertaste and salty taste” value ([4]; beverage containing 1.26% KCl) was “reduces the level of bitter aftertaste without increasing the salty taste”, the “effect on aftertaste of KCl” value ([4]; levels as low as 5 mg/100 cc, beverage containing 1.26% KCl by weight) was “effective in reducing and eliminating the aftertaste of KCl” and the Bitter ([2]; modifier 1.0 mg/100 cc) was 3.0*. For the same molecule, the Other ([2]; modifier 1.0 mg/100 cc) was 3.3*, the Salt ([2]; modifier 1.0 mg/100 cc) was 3.3 and the Sour ([2]; modifier 1.0 mg/100 cc) was 0.0. For the same molecule, the Sweet ([2]; modifier 1.0 mg/100 cc) was 0.0, the Bitter ([2]; modifier 5.0 mg/100 cc) was 2.0* and the Other ([2]; modifier 5.0 mg/100 cc) was 3.0*. For the same molecule, the Salt ([2]; modifier 5.0 mg/100 cc) was 3.8, the Sour ([2]; modifier 5.0 mg/100 cc) was 0.0 and the Sweet ([2]; modifier 5.0 mg/100 cc) was 0.0. For the same molecule, the Bitter ([2]; modifier 10.0 mg/100 cc) was 2.0*, the Other ([2]; modifier 10.0 mg/100 cc) was 2.0* and the Salt ([2]; modifier 10.0 mg/100 cc) was 2.0. The Sour ([2]; modifier 10.0 mg/100 cc) was 0.0 and the Sweet ([2]; modifier 10.0 mg/100 cc) was 0.0.
